Where a name gives a salt, the structure may show the parent alone.
Assays:
[1] = system: d-amphetamine induced stimulation; settings: injected into rat nucleus accumbens or striatum; cited from earlier work
[2] = system: PCP and MK801-induced behavioral arousal; settings: in vivo; cited from earlier work
anxiety = settings: in vivo; cited from earlier work
micturition = settings: rat; cited from earlier work
Parkinson's disease = settings: at plasma levels leading to NMDA receptor antagonism; cited from earlier work
[3] = target: T1, NMDA receptor subunits 1A/2A (Rattus norvegicus, UniProt P35439+Q00959); assay: Electrophysiological assay at NMDA receptor subunits expressed in Xenopus oocytes, 1A/2A; format: cell-based; settings: glutamate 100 μm and glycine 1-100 μm
T1 construct: expressed in transfected cells; host or cells: Xenopus laevis oocytes (cRNA injection; clones from Dr. P. H. Seeburg)
Method in brief: (§1)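 Two-electrode voltage clamp of Xenopus oocytes injected with rat NR1A plus NR2A, 2B or 2C cRNA (1:1), recorded 3–21 days post-injection in Ringer's, pH 7.4. Currents evoked by glutamate (100 μm) with glycine (1–100 μm); antagonist applied by bath perfusion at rising concentrations, IC50 from logistic fit or linear regression for incomplete curves.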

[4] = system: Maximal Electroshock-induced Seizures; assay: Maximal electroshock-induced seizures (MES); format: in vivo; settings: Mus musculus; mice; 50 mA, 60 pulses/sec, 1 sec
Description: Seizures were induced by application of current (50 mA, 60 pulses/sec, 0.8 sec pulse width, 1 sec duration, d.c.) through saline-coated corneal electrodes using a Ugo Basile ECT device (Model 7801). […] A tonic seizure was defined as a hindlimb extension in excess of 90 degrees from the plane of the body.

[5] = system: focal ischemia (MCA occlusion); assay: Induction of focal ischemia (MCA occlusion), infarct volume; format: in vivo, rats; settings: for Mean Infarct Volume: mean ± S.E.M.
Description: Induction of Focal Ischemia
Rats were intubated and maintained under anesthesia with 2% of halothane. Body temperature was maintained at 37.5° C. during surgery by means of a warming pad and a rectal probe connected to the control unit. The common carotid arteries (CCA) were isolated, and a loose silk ligature was placed around each CCA. A vertical skin incision was made between the left orbit and the auditory canal. The posterior part of the zygoma was removed and a small opening (2.0-2.5 mm) was drilled dorsorostrally to the foramen ovale under constant saline irrigation. The dura was opened with a microsurgical hook and the brain gently retracted to expose the bifurcation of the internal carotid artery and the middle cerebral artery (MCA). The ipsilateral CCA was ligated and the MCA coagulated from its origin to the olfactory tract. The contralateral CCA was occluded with an arterial clip. All cuts were sutured and an i.v. line was connected to an infusion pump for delivery of the compound of the invention. Two hours after MCA occlusion, the clip on the contralateral CCA was removed. Rectal temperature was measured 2 hours after MCA occlusion (MCA-0).

[6] = target: T2, NMDA receptor subunits 1A/2C (Rattus norvegicus, UniProt P35439+Q00961); assay: Electrophysiological assay at NMDA receptor subunits expressed in Xenopus oocytes, 1A/2C; format: cell-based; settings: Xenopus oocytes; glutamate 100 μm and glycine 1-100 μm; read-out: Subunits IC50, 1A/2C
T2 construct: expressed in transfected cells; host or cells: Xenopus laevis oocytes (cRNA injection; clones from Dr. P. H. Seeburg)
Method in brief: as §1

[7] = target: T3, NMDA receptor subunits 1A/2B (Rattus norvegicus, UniProt P35439+Q00960); assay: Electrophysiological assay at NMDA receptor subunits expressed in Xenopus oocytes, 1A/2B; format: cell-based; settings: Xenopus oocytes; glutamate 100 μm and glycine 1-100 μm; read-out: Subunits IC50, 1A/2B
T3 construct: expressed in transfected cells; host or cells: Xenopus laevis oocytes (cRNA injection; clones from Dr. P. H. Seeburg)
Method in brief: as §1

T2 sequence (Q00961 20-1237, other chains not shown): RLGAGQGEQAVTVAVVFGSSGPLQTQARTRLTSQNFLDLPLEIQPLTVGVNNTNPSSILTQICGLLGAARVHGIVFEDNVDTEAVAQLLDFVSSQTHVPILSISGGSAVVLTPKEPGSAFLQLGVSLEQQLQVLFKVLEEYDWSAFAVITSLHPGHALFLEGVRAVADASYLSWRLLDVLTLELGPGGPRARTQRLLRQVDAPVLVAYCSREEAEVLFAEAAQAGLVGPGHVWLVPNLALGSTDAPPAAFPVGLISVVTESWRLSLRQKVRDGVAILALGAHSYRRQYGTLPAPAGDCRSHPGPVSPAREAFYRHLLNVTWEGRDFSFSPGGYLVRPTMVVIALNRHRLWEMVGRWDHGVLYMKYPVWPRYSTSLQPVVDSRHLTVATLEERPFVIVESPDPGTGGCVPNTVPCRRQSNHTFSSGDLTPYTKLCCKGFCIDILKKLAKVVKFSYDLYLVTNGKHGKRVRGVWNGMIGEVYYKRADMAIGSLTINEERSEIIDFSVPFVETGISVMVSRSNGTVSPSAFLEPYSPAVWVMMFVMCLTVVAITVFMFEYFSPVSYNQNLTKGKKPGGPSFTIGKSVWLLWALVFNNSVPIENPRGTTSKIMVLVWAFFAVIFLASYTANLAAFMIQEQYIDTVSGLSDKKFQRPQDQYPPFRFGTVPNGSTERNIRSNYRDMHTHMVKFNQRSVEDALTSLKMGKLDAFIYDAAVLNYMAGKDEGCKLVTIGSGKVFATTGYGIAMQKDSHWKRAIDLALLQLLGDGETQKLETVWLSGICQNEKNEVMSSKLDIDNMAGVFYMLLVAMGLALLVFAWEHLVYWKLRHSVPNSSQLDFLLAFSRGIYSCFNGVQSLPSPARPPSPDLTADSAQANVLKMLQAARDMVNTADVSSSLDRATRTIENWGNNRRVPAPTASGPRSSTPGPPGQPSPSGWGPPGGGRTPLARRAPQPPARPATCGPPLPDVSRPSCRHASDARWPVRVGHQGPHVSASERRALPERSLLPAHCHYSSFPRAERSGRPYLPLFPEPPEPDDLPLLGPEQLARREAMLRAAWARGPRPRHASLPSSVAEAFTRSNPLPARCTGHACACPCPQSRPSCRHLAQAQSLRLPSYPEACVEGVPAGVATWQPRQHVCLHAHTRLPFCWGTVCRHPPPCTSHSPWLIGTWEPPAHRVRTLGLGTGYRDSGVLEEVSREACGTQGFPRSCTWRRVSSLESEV
T3 sequence (Q00960 27-1482, other chains not shown): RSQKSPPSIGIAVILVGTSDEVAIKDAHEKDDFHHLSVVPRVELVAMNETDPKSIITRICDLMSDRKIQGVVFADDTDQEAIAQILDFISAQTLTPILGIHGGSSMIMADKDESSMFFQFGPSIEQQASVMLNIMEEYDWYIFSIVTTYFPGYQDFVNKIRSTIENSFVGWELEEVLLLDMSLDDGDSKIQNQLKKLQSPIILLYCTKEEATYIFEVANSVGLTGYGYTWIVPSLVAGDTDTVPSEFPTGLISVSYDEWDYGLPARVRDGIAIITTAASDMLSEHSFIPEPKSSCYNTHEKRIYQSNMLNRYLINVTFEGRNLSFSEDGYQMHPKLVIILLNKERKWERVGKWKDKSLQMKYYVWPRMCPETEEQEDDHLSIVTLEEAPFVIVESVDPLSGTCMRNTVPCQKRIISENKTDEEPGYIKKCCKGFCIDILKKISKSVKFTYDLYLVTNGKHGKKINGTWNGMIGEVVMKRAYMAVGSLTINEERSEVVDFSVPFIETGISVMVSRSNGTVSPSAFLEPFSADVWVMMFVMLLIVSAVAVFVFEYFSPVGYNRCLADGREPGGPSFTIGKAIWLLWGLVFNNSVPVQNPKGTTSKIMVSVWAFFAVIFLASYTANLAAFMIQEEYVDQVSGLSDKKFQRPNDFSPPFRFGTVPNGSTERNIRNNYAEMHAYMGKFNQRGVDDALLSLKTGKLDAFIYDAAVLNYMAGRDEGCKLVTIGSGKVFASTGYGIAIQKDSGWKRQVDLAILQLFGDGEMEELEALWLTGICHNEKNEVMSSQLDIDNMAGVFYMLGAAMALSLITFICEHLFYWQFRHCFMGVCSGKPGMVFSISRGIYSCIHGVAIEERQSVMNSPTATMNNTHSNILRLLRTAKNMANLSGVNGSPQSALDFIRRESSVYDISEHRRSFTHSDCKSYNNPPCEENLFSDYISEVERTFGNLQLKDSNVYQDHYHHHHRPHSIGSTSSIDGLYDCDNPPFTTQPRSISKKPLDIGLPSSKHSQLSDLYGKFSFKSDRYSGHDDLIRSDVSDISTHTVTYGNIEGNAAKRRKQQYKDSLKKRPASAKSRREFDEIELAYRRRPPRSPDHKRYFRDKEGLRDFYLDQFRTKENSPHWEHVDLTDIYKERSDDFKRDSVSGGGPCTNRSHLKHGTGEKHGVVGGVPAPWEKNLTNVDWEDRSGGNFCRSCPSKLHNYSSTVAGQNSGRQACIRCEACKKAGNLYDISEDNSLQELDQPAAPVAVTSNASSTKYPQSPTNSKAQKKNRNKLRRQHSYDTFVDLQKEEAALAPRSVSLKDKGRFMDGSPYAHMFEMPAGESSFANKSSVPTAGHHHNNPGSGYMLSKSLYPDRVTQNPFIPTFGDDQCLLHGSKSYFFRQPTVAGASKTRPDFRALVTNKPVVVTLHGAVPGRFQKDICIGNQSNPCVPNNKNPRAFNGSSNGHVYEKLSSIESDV
T1 sequence (Q00959 20-1464 limits assumed, other chains not shown): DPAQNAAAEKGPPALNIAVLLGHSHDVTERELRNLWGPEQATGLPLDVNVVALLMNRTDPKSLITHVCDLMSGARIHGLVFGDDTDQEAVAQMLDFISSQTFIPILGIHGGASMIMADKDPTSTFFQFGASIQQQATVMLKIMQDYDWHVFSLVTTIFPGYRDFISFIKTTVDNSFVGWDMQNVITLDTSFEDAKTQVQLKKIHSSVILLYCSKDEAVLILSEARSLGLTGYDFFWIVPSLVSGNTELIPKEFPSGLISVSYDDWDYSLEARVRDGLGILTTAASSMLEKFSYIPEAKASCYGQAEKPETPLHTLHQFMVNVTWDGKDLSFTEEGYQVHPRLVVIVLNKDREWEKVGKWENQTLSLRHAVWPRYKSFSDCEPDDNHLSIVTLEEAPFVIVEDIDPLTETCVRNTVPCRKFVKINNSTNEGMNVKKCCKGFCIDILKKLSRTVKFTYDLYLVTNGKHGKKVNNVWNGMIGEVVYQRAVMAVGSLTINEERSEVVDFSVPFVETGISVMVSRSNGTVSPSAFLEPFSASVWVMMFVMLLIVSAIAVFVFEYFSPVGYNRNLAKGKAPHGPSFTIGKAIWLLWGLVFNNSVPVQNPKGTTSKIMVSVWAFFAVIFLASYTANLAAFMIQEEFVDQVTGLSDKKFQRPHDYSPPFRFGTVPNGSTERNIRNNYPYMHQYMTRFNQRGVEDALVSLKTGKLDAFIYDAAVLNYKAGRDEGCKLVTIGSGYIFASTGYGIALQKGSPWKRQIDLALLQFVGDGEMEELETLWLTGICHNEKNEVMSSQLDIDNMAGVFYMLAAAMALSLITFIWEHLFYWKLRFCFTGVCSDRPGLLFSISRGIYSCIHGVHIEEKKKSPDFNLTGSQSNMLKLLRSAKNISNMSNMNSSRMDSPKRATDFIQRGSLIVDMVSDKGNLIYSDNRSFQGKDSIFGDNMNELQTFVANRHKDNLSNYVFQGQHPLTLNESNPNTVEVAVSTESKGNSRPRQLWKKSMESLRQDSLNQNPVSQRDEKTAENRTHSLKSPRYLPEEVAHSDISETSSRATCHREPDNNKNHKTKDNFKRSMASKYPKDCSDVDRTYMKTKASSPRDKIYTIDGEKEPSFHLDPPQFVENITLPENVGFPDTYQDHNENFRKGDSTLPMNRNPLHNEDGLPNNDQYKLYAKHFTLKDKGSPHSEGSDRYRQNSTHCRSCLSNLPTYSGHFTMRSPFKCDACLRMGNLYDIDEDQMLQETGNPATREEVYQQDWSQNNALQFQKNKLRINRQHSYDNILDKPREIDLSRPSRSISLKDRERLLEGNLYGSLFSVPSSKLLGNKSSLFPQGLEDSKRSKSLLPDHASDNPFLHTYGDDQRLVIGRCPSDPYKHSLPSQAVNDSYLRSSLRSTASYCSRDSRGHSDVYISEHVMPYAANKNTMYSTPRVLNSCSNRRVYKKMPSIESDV

N[C@@H]1CCN(O)C1=O [(+) HA-966]
antagonism of d-amphetamine induced stimulation [1]: selectively antagonize d-amphetamine induced stimulation when injected into rat nucleus accumbens but not in striatum | block of PCP and MK801-induced behavioral arousal [2]: block PCP and MK801-induced behavioral arousal

C[C@]12N[C@H](Cc3ccccc31)c1ccccc12 [MK801]
effect in animal models of anxiety (anxiety): effective in a variety of animal models of anxiety | frequency of micturition (micturition): increased the frequency of micturition in rat

O=C(O)c1cc(O)c2c(Cl)cc(Cl)cc2n1 [5,7-dichlorokynurenic acid]
antagonism of d-amphetamine induced stimulation [1]: selectively antagonize d-amphetamine induced stimulation when injected into rat nucleus accumbens but not in striatum

NC12CC3CC(CC(C3)C1)C2 [amantadine]
antiparkinsonian-like activity in animals (Parkinson's disease): showed antiparkinsonian-like activity in animals

CC12CC3CC(C)(C1)CC(N)(C3)C2 [memantine]
antiparkinsonian-like activity in animals (Parkinson's disease): showed antiparkinsonian-like activity in animals

Fc1ccc(OCCN2CCC(Cc3ccc(Cl)cc3)CC2)cc1 [Ex. 25, 4-(4-Chlorobenzyl)-1-(2-(4-fluorophenoxy)ethyl)piperidine hydrobromide]
IC50 [3]: 60 µM | ED50 [4]: 4 mg/kg | Mean Infarct Volume ([5]; Cortex, 10 mg/Kg i.v. bolus, n = 7, vehicle 114.936 ± 22.3): 41.857 ± 19.984 mm^3 | % of Ischemia Protection ([5]; Cortex, 10 mg/Kg i.v. bolus, p = 0.0381): 64% | Mean Infarct Volume ([5]; Subcortex, 10 mg/Kg i.v. bolus, n = 7, vehicle 81.564 ± 5675): 43.343 ± 17.37 mm^3 | % of Ischemia Protection ([5]; Subcortex, 10 mg/Kg i.v. bolus, p = .0320): 47% | protection from ischemia ([5]; Table 5 and FIG. 2, 10 mg/Kg i.v. bolus): significant protection from ischemia | IC50 [6]: 80 µM | IC50 [7]: 1 µM

c1ccc(CC2CCN(CCOc3ccccc3)CC2)cc1 [Ex. 1, 4-Benzyl-1-(2-phenoxyethyl)piperidine]
IC50 [3]: > 100 µM | ED50 [4]: 2 mg/kg | Mean Infarct Volume ([5]; Cortex, rats, 2.5 mg/Kg i.v. bolus then 1.75 mg/Kg for 22 hours, n = 12, vehicle 120.450 ± 20.166): 50.450 ± 11.428 mm^3 | % of Ischemia Protection ([5]; Cortex, rats, 2.5 mg/Kg i.v. bolus then 1.75 mg/Kg for 22 hours, p = 0.0071): 58% | Mean Infarct Volume ([5]; Subcortex, rats, 2.5 mg/Kg i.v. bolus then 1.75 mg/Kg for 22 hours, n = 12, vehicle 74.462 ± 7.481): 67.400 ± 6.775 mm^3 | % of Ischemia Protection ([5]; Subcortex, rats, 2.5 mg/Kg i.v. bolus then 1.75 mg/Kg for 22 hours, p = 0.4936): 9.5% | protection from ischemia ([5]; table 4 and FIG. 1, 2.5 mg/Kg i.v. bolus then 1.75 mg/Kg for 22 hours): significant protection from ischemia | IC50 [6]: > 100 µM | IC50 [7]: 0.8 µM

— US6124323A, “4-substituted piperidine analogs and their use as subtype selective NMDA receptor antagonists” (Warner-Lambert Company, priority 1998, dated 2000)
